According to ChEMBL document CHEMBL1201862, “PubChem BioAssay data set” (2004):
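A five-concentration, 48-hour dose response in 96-well plates underlies each endpoint, interpolated linearly between surrounding concentrations. GI50 is the concentration that inhibits growth by half.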 Activity calls are given as the source filed them. Rule as the data show it: active = GI50 up to about 1.1 µM and inactive = higher. Peptide text beside a SMILES is read from it. * marks the point of attachment. Boc = CC(C)(C)OC(=O)*

How the values were obtained:
Experiment in all cases: NCI-60 cell line screen, 48 h
T47D = system: T47D
Hs-578T = system: Hs-578T
M19-MEL = system: M19-MEL
LXFL 529 = system: LXFL 529
KM-20L2 = system: KM-20L2
DMS-114 = system: DMS-114
XF498 = system: XF498
HOP-18 = system: HOP-18

Structure (SMILES)	GI50 (T47D)	GI50 (Hs-578T)	other results
CCOC(=O)c1c(N=C(S)Nc2ccccc2)sc2c1CCN(C)C2	> 100 µM (inactive)	> 100 µM (inactive)	
O=C(N/C(=C\c1cc(Cl)ccc1Cl)c1nc2cc(Cl)ccc2[nH]1)c1ccccc1			GI50 (M19-MEL): 16 µM (inactive); GI50 (LXFL 529): 13.6 µM (inactive); GI50 (KM-20L2): 18.2 µM (inactive); GI50 (DMS-114): 15.4 µM (inactive)
O=C(c1cccs1)N(C(=S)N1CCN(c2ccccn2)CC1)c1ccccc1			GI50 (M19-MEL): 81.1 µM (inactive); GI50 (LXFL 529): 39.4 µM (inactive); GI50 (KM-20L2): > 100 µM (inactive); GI50 (DMS-114): 53 µM (inactive); GI50 (XF498): 37.5 µM (inactive); GI50 (HOP-18): > 100 µM (inactive)
CC[C@]12C=CCN3CC[C@@]4(c5cc(Br)c(OC)c([N+](=O)[O-])c5N(C)[C@H]4[C@@](O)(C(=O)OC)[C@@H]1OC(C)=O)[C@@H]32	50.4 µM (inactive)	36.1 µM (inactive)	
NC(=O)C(=CNC(=S)Nc1ccc(Cl)c(Cl)c1)C(N)=O	12.2 µM (inactive)	30.3 µM (inactive)	
O=C1Nc2c(ccc(Cl)c2I)C1=O			GI50 (M19-MEL): 11.4 µM (inactive); GI50 (LXFL 529): 14 µM (inactive); GI50 (KM-20L2): 30 µM (inactive); GI50 (DMS-114): 15.5 µM (inactive); GI50 (XF498): 16 µM (inactive)
COc1ccc(/C=C2\C[C@H]3[C@@H]4CCC5=C/C(=N/O)CC[C@]5(C)[C@H]4CC[C@]3(C)\C2=N\O)cc1	7.98 µM (inactive)	28.5 µM (inactive)	
O=C(O)C(CO)NC(=O)n1c2ccccc2c2ccccc21 (configuration not stated)			GI50 (M19-MEL): > 100 µM (inactive); GI50 (LXFL 529): > 100 µM (inactive); GI50 (DMS-114): > 100 µM (inactive); GI50 (XF498): > 100 µM (inactive); GI50 (HOP-18): > 100 µM (inactive)
CC1CCc2sc3nc(S)n(C)c(=O)c3c2C1 (configuration not stated)	48.5 µM (inactive)	78.2 µM (inactive)	
OCC(O)COCn1cc(Cn2ncc3c(NCc4ccccc4)ncnc32)nn1 (configuration not stated)	> 100 µM (inactive)	25 µM (inactive)	
O=C(NCCCl)Nc1ccccc1	> 100 µM (inactive)	> 100 µM (inactive)	
O=C1Cc2cn[nH]c2-c2ccccc2N1	36 µM (inactive)	37.9 µM (inactive)	
COc1cc(O)c2c(c1)C(O)C(O)CC1OC1C(=O)/C=C/CC(C)OC2=O (configuration not stated)	5.05 µM (inactive)	10 µM (inactive)	
C/C(=C\c1csc(C)n1)[C@@H]1C[C@@H]2O[C@]2(C)CCC[C@H](C)[C@H](O)[C@@H](C)C(=O)C(C)(C)[C@@H](O)CC(=O)O1 [PATUPILONE]	< 0.0001 µM (active)	< 0.0001 µM (active)	
Cc1cccc2c1C(=O)[C@](C)([C@]1(C)Nc3cccc(C)c3C1=O)N2	28.8 µM (inactive)	21.7 µM (inactive)	
CC12c3c4cc(Br)cc3Oc3cc(Br)cc(c31)Oc1cc(Br)cc(c12)O4	28.1 µM (inactive)	> 100 µM (inactive)	
OCCCC(O)(c1ccccc1)c1ccccc1		> 100 µM (inactive)	
C[C@@](Br)(C(=O)O)[C@H](Br)C(=O)O	> 100 µM (inactive)		
NC(=S)N1N=C2CCCCCC[C@@H]2[C@H]1c1ccccc1			GI50 (M19-MEL): 38.5 µM (inactive); GI50 (LXFL 529): 40 µM (inactive); GI50 (KM-20L2): 62.1 µM (inactive); GI50 (DMS-114): 27.1 µM (inactive); GI50 (XF498): 23.9 µM (inactive)
COC(=O)/C=C\C(C#N)(C#N)/N=C/c1cccs1	2.93 µM (inactive)	24.8 µM (inactive)	
CCN(CCCl)c1cc(CN(C)C)cc(NC(=O)c2ccc(C(=O)Nc3cccc(N(CCCl)NN)c3)cc2)c1	0.0612 µM (active)	0.0186 µM (active)	
COc1cc2c3c(c1O)-c1c(ccc(OC)c1OC)CC3N(C)CC2 (configuration not stated)	> 100 µM (inactive)	> 100 µM (inactive)	

Structure (SMILES)	GI50 (T47D)	GI50 (Hs-578T)	other results
COc1ccc2c(-c3ccc(OCCN(C)C)cc3)c(Oc3ccc(Cl)cc3)c(=O)oc2c1	> 20.4 µM (inactive)	6.01 µM (inactive)	
N#CC1CCCCCCCCCCC(=O)N(CCCl)C1=O (configuration not stated)			GI50 (M19-MEL): > 100 µM (inactive); GI50 (LXFL 529): > 100 µM (inactive); GI50 (KM-20L2): > 100 µM (inactive); GI50 (DMS-114): > 100 µM (inactive); GI50 (XF498): > 100 µM (inactive)
COC(Cc1ccccc1)NC(C)=O (configuration not stated)	> 100 µM (inactive)	> 100 µM (inactive)	
Cc1ccc(Cl)c2c(=O)cc(-c3ccccc3)[nH]c12			GI50 (M19-MEL): 68.7 µM (inactive); GI50 (LXFL 529): 41.7 µM (inactive); GI50 (HOP-18): 11.5 µM (inactive)
N#C[BH2-][n+]1cn(C2CC(O)C(COP(=O)(O)OC3CC(n4c[n+]([BH2-]C#N)c5c(=O)[nH]c(N)nc54)OC3CO)O2)c2nc(N)[nH]c(=O)c21 (configuration not stated)	> 100 µM (inactive)		
C#CCOC(=O)C(N)CC(N)=O (configuration not stated)	> 69 µM (inactive)	> 100 µM (inactive)	
CCC(=O)CC(=O)CCC(=O)Nc1cc(C)ccc1C			GI50 (LXFL 529): > 100 µM (inactive); GI50 (KM-20L2): > 100 µM (inactive); GI50 (XF498): > 100 µM (inactive); GI50 (HOP-18): > 100 µM (inactive)
CC(=O)Nc1ccc2c3c(cc(O)c2c1)N(C(=O)CCCCC(=O)Nc1ccc2c4c(cc(O)c2c1)N(C(=O)OC(C)(C)C)CC4CCl)CC3CCl (configuration not stated)	0.82 µM (active)	3.55 µM (inactive)	
O=C(O)C(O)c1ccc(F)cc1 (configuration not stated)	> 100 µM (inactive)	> 100 µM (inactive)	
CN(C)CCC(O)(c1ccccc1)C(O)(CCN(C)C)c1ccccc1 (configuration not stated)			GI50 (M19-MEL): > 100 µM (inactive); GI50 (LXFL 529): > 100 µM (inactive); GI50 (KM-20L2): 67 µM (inactive); GI50 (DMS-114): > 100 µM (inactive); GI50 (XF498): 38.7 µM (inactive)
c1ccc2c(c1)CCc1cc3cc4c(nc3nc1-2)-c1ccccc1CC4			GI50 (M19-MEL): > 100 µM (inactive); GI50 (LXFL 529): > 100 µM (inactive)
O=C(O)C1=Cc2cccc3cccc(c23)C1=O			GI50 (M19-MEL): > 100 µM (inactive); GI50 (LXFL 529): > 100 µM (inactive); GI50 (KM-20L2): > 100 µM (inactive); GI50 (DMS-114): > 100 µM (inactive); GI50 (HOP-18): > 100 µM (inactive)
O=C1CSC(c2c[nH]c3ccccc23)N1c1ccc(Cl)cc1Cl (configuration not stated)	> 100 µM (inactive)		
NCCCOc1ccc([N+](=O)[O-])cc1Cl			GI50 (M19-MEL): > 100 µM (inactive); GI50 (LXFL 529): 67.3 µM (inactive); GI50 (KM-20L2): > 100 µM (inactive); GI50 (DMS-114): > 100 µM (inactive); GI50 (XF498): > 100 µM (inactive)
FC(F)(F)c1ccc(Cc2nc3cc4ccccc4cc3[nH]2)cc1	39.9 µM (inactive)	95.7 µM (inactive)	
Nc1cc(CO)cc(Nc2c3ccccc3nc3occc23)c1	29.6 µM (inactive)	31 µM (inactive)	
CC(C)(CC(=O)Nc1ccccc1)C(=O)O	> 100 µM (inactive)		
COC(=O)[C@@]12OC[C@]34C([C@@H](O)C1O)[C@@]1(C)CC(=O)C(OC(=O)CC(C)C(F)(F)F)=C(C)C1C[C@H]3OC(=O)[C@H](O)[C@H]42 (some centres not stated)			GI50 (M19-MEL): 0.434 µM (active); GI50 (LXFL 529): 3.81 µM (inactive); GI50 (KM-20L2): 3.8 µM (inactive); GI50 (DMS-114): 1.44 µM (inactive); GI50 (XF498): 0.13 µM (active); GI50 (HOP-18): 1.99 µM (inactive)
O=[N+]([O-])c1ccccc1S(=O)(=O)c1cc(O)cc2c1NCCC2	6.35 µM (inactive)	27.4 µM (inactive)	
COc1ccc(/C=C2\CCCc3ccccc3C2=O)cc1		0.233 µM (active)	
CC1=CC(=O)C2=C(C)CCC3C(C)C(=O)OC3C12 (configuration not stated)	> 100 µM (inactive)	> 100 µM (inactive)	
O=C1C=C(c2[nH]c3ccccc3c2C2=CC(=O)c3ccccc3C2=O)C(=O)c2ccccc21			GI50 (M19-MEL): 17.3 µM (inactive); GI50 (LXFL 529): 37.3 µM (inactive); GI50 (DMS-114): 17.3 µM (inactive); GI50 (HOP-18): > 100 µM (inactive)

Structure (SMILES)	GI50 (T47D)	GI50 (Hs-578T)	other results
CCOC(=O)c1c(C)n(-c2ccc(C)cc2)c(=O)c2ccccc2c(=O)c2c(=O)ccc(=O)c1=2	20 µM (inactive)	21.3 µM (inactive)	
C[C@H](CCC(=O)O)[C@H]1CC[C@H]2[C@@H]3[C@@H](O)C[C@@H]4C[C@H](O)CC[C@]4(C)[C@H]3CC[C@]12C	> 100 µM (inactive)	59.8 µM (inactive)	
N=c1c2ccccc2nc2oc3ccc(Cl)cc3n12		2.28 µM (inactive)	
CC1C(c2ccccc2)N(C)C(c2ccccc2)C(C)C1(O)c1ccccc1 (configuration not stated)			GI50 (M19-MEL): 47.4 µM (inactive); GI50 (LXFL 529): > 100 µM (inactive); GI50 (KM-20L2): > 100 µM (inactive); GI50 (DMS-114): > 100 µM (inactive)
CC(NC(=O)OC(C)(C)C)C(=O)NC(Cc1ccccc1)C(=O)NCC(=O)O (stereo not drawn) (Boc-Ala-Phe-Gly-OH; configuration not given here)	> 100 µM (inactive)	> 100 µM (inactive)	
O=C(NC1C=CCC2C(=O)N(c3ccccc3)C(=O)C12)OCc1ccccc1 (configuration not stated)			GI50 (M19-MEL): > 100 µM (inactive); GI50 (LXFL 529): > 100 µM (inactive); GI50 (KM-20L2): > 100 µM (inactive); GI50 (XF498): > 100 µM (inactive); GI50 (HOP-18): > 100 µM (inactive)
CC(C)(C)OC(=O)NCCC1SC2C=CC1C2 (configuration not stated)	99.3 µM (inactive)	> 100 µM (inactive)	
C/C=C1/CN2CCC34c5ccccc5N(C)C23C2CC1C4(C(=O)OC)C(OC(C)=O)O2 (configuration not stated)	> 100 µM (inactive)	> 100 µM (inactive)	
CN(C)CCOc1ccc2[nH]c(C(=O)N3CC(CCl)c4c3cc(NC(=O)OCc3ccc([N+](=O)[O-])cc3)c3ccccc43)cc2c1 (configuration not stated)	1.55 µM (inactive)	2.3 µM (inactive)	
CC(C)=CCC/C(C)=C/CC/C(C)=C/[C@@H]1[C@@H](CO)[C@]1(C)CC/C=C(\C)CCC=C(C)C	41.3 µM (inactive)	> 100 µM (inactive)	
CCOC(=O)C(NCc1ccc2c(c1)OCO2)(NC(=O)c1ccccc1)C(F)(F)F (configuration not stated)	38.3 µM (inactive)	> 100 µM (inactive)	
Cc1ccc(Nc2c(C#N)[n+]([O-])c3cc(Cl)ccc3[n+]2[O-])cc1	> 100 µM (inactive)	> 100 µM (inactive)	
COc1cc(/C=C2\C(=O)N(c3cccc(NC(C)=O)c3)C(c3ccccc3)S2(=O)=O)cc(OC)c1OC (configuration not stated)	34.7 µM (inactive)		
CC1(C)CC(=O)C(=CNC(=S)c2ccccc2)C(=O)C1		> 100 µM (inactive)	
Cc1c2oc3c(C)cnc(C(=O)NC4C(=O)NC(C(C)C)C(=O)N5CCCC5C(=O)N(C)CC(=O)N(C)C(C(C)C)C(=O)OC4C)c3nc-2c(C(=O)NC2C(=O)NC(C(C)C)C(=O)N3CCCC3C(=O)N(C)CC(=O)N(C)C(C(C)C)C(=O)OC2C)c(N)c1=O (configuration not stated)	1.07 µM (active)	1.88 µM (inactive)	
O=C(c1cccs1)N(C(=O)N1CCN(c2ccccc2)CC1)S(=O)(=O)c1ccccc1	12.7 µM (inactive)	23.8 µM (inactive)	
CCCC#CCOC(=O)c1cc([N+](=O)[O-])cc([N+](=O)[O-])c1	> 100 µM (inactive)	> 100 µM (inactive)	
CNC(=O)OCC1=C(COC(=O)NC)CN(c2ccccc2)C1	> 100 µM (inactive)	> 100 µM (inactive)	
Cc1cccc2c1CC1(Cc3c(C)cccc3C1=O)C2=O	> 100 µM (inactive)	> 100 µM (inactive)	
C/C(=N\NS(=O)(=O)c1ccc(C)cc1)c1cc2ccccc2n1C			GI50 (M19-MEL): > 100 µM (inactive); GI50 (LXFL 529): > 100 µM (inactive); GI50 (KM-20L2): > 100 µM (inactive); GI50 (DMS-114): > 100 µM (inactive)
